# In PubChem BioAssay AID2060485 (Molecular Pharmacology Branch, DTP, NCI, 2025):
# System: A375 multi-cell spheroids with HUVEC/MSC, viability
# Experiment: Anticancer human tumor A375 cell line growth inhibition [GQUAD];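 further: spheroids exposed to compounds for seven days before readout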
# Settings: for IC50: curve of first compound; for viability, T/C: stronger effect = lower value
# Excerpt: DNA G-quadruplex Stabilizer Agents in Combinations in Complex Spheroids
# A high-throughput screen of multi-cell type tumor spheroids was designed to identify active combinations of DNA G-quadruplex stabilizer agents and targeted small molecules. Complex spheroids include a stromal component modeled by human endothelial cells (HUVEC) and fibroblasts modeled by human mesenchymal stem cells (MSCs). The concentration ranges selected for each drug and investigational agent were based upon clinically achievable concentrations if the clinical Cmax of the agent was known.
# Compounds. The drugs and investigational agents: pidnarulex (CX-5461; NSC782164), APTO-253 (NSC789042), BRACO-19 (NSC847499), peposertib (NSC802822), ceralasertib (NSC780249), elimusertib (NSC800525), camonsertib (NSC841442), AZD-1390 (NSC803789), olaparib (NSC753686), talazoparib (NSC767125), ART-558 (NSC835418), sotorasib (NSC818433), MRTX-1133 (NSC836407), SN-38 (NSC673596), topotecan (NSC609699), etoposide (NSC141540), doxorubicin (NSC123127), gemcitabine (NSC613327), 5-fluorouracil (NSC19893), paclitaxel (NSC125973), vemurafenib (NSC761431), panobinostat (NSC761190), R-306465 (JNJ-16241199; NSC773264), adavosertib (NSC754352), TP-3654 (NSC805149), carboplatin (NSC241240), KSQ-4279 (NSC840948), and staurosporine (NSC755774) were obtained from the National Cancer Institute (NCI) Developmental Therapeutics Program Chemical Repository (34). The FDA-approved anticancer drug set is available from the NCI Developmental Therapeutics Program. […] The stock solutions were prepared in dimethyl sulfoxide (DMSO, Sigma-Aldrich, St. Louis, MO, cat. D2650) at 800-fold the tested concentration and stored at -70 degrees C prior to their use. All drugs and investigational agents were tested over a range starting from a high concentration at or near the clinical Cmax and decreasing in half-log increments. If the clinical Cmax for an agent had not been determined, the highest concentration tested was 10 microM.
# 2.3 Cell Culture. All cells were maintained in an incubator at 37 degrees C and 5% CO2 with 95% humidity. The PDC lines were cultured according to standard operating procedures established by the NCI PDMR. All PDCs were thawed and cultured in Matrigel-coated flasks prepared with a working solution of 1X Ham's F-12 nutrient mix, without supplementation (Invitrogen, cat. 11765054), 100 U/mL penicillin-streptomycin (Invitrogen, cat. 15140122), and 2.5% Matrigel (Corning Inc., cat. 354248) for the first three passages. The 857933-349-R-J2-PDC line was cultured in 6C/Colon 1B media, which includes advanced DMEM/F-12 (Thermo Fisher Scientific, cat. 12634028), 10 mM HEPES (Thermo Fisher Scientific, cat. 15630080), 1X GlutaMAX supplement (Thermo Fisher Scientific, cat. 35050061), 0.1 mg/mL primocin (InvivoGen, cat. ant-pm-2), 10% defined fetal bovine serum, heat inactivated (HyClone Laboratories Inc., cat. SH30070.03HI), 50% L-WRN conditioned media (ATCC, cat. CRL-3276), 1.25 mM N-Acetyl-L-cysteine (Sigma-Aldrich, cat. A9165), 10 mM nicotinamide (Sigma-Aldrich, cat. N0636), 1X B-27 supplement (Thermo Fisher Scientific, cat. 17504044), 1X N-2 supplement (Thermo Fisher Scientific, cat. 17502048), 10 microM Y-27632 dihydrochloride (Tocris Bioscience, cat. 1254), and 50 ng/mL human EGF recombinant protein (Thermo Fisher Scientific, cat. PHG0311). The 485176-168-R4-J1-PDC line was cultured in Panc media, which includes all 6C/Colon 1B media components plus 100 ng/mL human FGF-10 (Thermo Fisher Scientific, cat. 100-26), 500 nM SB-431542 (Selleckchem, cat. S1067), and gastrin (Tocris, cat. 3006).
# […]
# [1] = second compound 0.0316 µM, first compound 0.0316 µM
# [2] = second compound 0.0316 µM, first compound 0.316 µM
# [3] = second compound 0.1 µM, first compound 0.0316 µM
# [4] = second compound 0.1 µM, first compound 0.316 µM
# [5] = second compound 0.316 µM, first compound 0.0316 µM
# [6] = second compound 0.316 µM, first compound 0.316 µM
# [7] = second compound 1 µM, first compound 0.0316 µM
# [8] = second compound 1 µM, first compound 0.316 µM
# [9] = second compound 3.16 µM, first compound 0.0316 µM
# [10] = second compound 3.16 µM, first compound 0.316 µM
# [11] = second compound 10 µM, first compound 0.0316 µM
# [12] = second compound 10 µM, first compound 0.316 µM
compound,measurement,setting,value
CC[C@@]1(O)C(=O)OCc2c1cc1n(c2=O)Cc2cc3c(CN(C)C)c(O)ccc3nc2-1 + CN(C)c1ccc(Nc2c3ccc(NC(=O)CCN4CCCC4)cc3nc3cc(NC(=O)CCN4CCCC4)ccc23)cc1,IC50,second compound 0.0316 µM,0.0447 µM
same,IC50,second compound 0.1 µM,0.0453 µM
same,IC50,second compound 0.316 µM,0.0396 µM
same,IC50,second compound 1 µM,0.0474 µM
same,IC50,second compound 3.16 µM,0.0495 µM
same,IC50,second compound 10 µM,0.0459 µM
same,"viability, T/C","second compound 0.0316 µM, first compound 0.000999 µM",104%
same,"viability, T/C","second compound 0.0316 µM, first compound 0.00316 µM",107%
same,"viability, T/C","second compound 0.0316 µM, first compound 0.00999 µM",104%
same,"viability, T/C",[1],63.4%
same,"viability, T/C","second compound 0.0316 µM, first compound 0.0999 µM",18.5%
same,"viability, T/C",[2],9.04%
same,"viability, T/C","second compound 0.1 µM, first compound 0.000999 µM",112%
same,"viability, T/C","second compound 0.1 µM, first compound 0.00316 µM",105%
same,"viability, T/C","second compound 0.1 µM, first compound 0.00999 µM",96.2%
same,"viability, T/C",[3],64.2%
same,"viability, T/C","second compound 0.1 µM, first compound 0.0999 µM",20.4%
same,"viability, T/C",[4],10.9%
same,"viability, T/C","second compound 0.316 µM, first compound 0.000999 µM",101%
same,"viability, T/C","second compound 0.316 µM, first compound 0.00316 µM",107%
same,"viability, T/C","second compound 0.316 µM, first compound 0.00999 µM",108%
same,"viability, T/C",[5],58%
same,"viability, T/C","second compound 0.316 µM, first compound 0.0999 µM",19.8%
same,"viability, T/C",[6],10.9%
same,"viability, T/C","second compound 1 µM, first compound 0.000999 µM",114%
same,"viability, T/C","second compound 1 µM, first compound 0.00316 µM",106%
same,"viability, T/C","second compound 1 µM, first compound 0.00999 µM",102%
same,"viability, T/C",[7],67%
same,"viability, T/C","second compound 1 µM, first compound 0.0999 µM",18.9%
same,"viability, T/C",[8],9.06%
same,"viability, T/C","second compound 3.16 µM, first compound 0.000999 µM",103%
same,"viability, T/C","second compound 3.16 µM, first compound 0.00316 µM",102%
same,"viability, T/C","second compound 3.16 µM, first compound 0.00999 µM",102%
same,"viability, T/C",[9],68.8%
same,"viability, T/C","second compound 3.16 µM, first compound 0.0999 µM",20.6%
same,"viability, T/C",[10],12.7%
same,"viability, T/C","second compound 10 µM, first compound 0.000999 µM",102%
same,"viability, T/C","second compound 10 µM, first compound 0.00316 µM",103%
same,"viability, T/C","second compound 10 µM, first compound 0.00999 µM",107%
same,"viability, T/C",[11],63.2%
same,"viability, T/C","second compound 10 µM, first compound 0.0999 µM",22.4%
same,"viability, T/C",[12],9.58%
COc1cc(C2c3cc4c(cc3C(OC3OC5COC(C)OC5C(O)C3O)C3COC(=O)C23)OCO4)cc(OC)c1O (centres undefined) + CN(C)c1ccc(Nc2c3ccc(NC(=O)CCN4CCCC4)cc3nc3cc(NC(=O)CCN4CCCC4)ccc23)cc1,IC50,second compound 0.0316 µM,1.02 µM
same,IC50,second compound 0.1 µM,0.966 µM
same,IC50,second compound 0.316 µM,1.2 µM
same,IC50,second compound 1 µM,1.41 µM
same,IC50,second compound 3.16 µM,1.58 µM
same,IC50,second compound 10 µM,1.46 µM
same,"viability, T/C",[1],99%
same,"viability, T/C","second compound 0.0316 µM, first compound 0.1 µM",105%
same,"viability, T/C",[2],75.3%
same,"viability, T/C","second compound 0.0316 µM, first compound 1 µM",52.5%
same,"viability, T/C","second compound 0.0316 µM, first compound 3.16 µM",27.5%
same,"viability, T/C","second compound 0.0316 µM, first compound 10 µM",19%
same,"viability, T/C",[3],109%
same,"viability, T/C","second compound 0.1 µM, first compound 0.1 µM",103%
same,"viability, T/C",[4],71.6%
same,"viability, T/C","second compound 0.1 µM, first compound 1 µM",50.2%
same,"viability, T/C","second compound 0.1 µM, first compound 3.16 µM",31.1%
same,"viability, T/C","second compound 0.1 µM, first compound 10 µM",18%
same,"viability, T/C",[5],107%
same,"viability, T/C","second compound 0.316 µM, first compound 0.1 µM",107%
same,"viability, T/C",[6],74.2%
same,"viability, T/C","second compound 0.316 µM, first compound 1 µM",55.1%
same,"viability, T/C","second compound 0.316 µM, first compound 3.16 µM",33%
same,"viability, T/C","second compound 0.316 µM, first compound 10 µM",18.2%
same,"viability, T/C",[7],117%
same,"viability, T/C","second compound 1 µM, first compound 0.1 µM",105%
same,"viability, T/C",[8],86.3%
same,"viability, T/C","second compound 1 µM, first compound 1 µM",58.6%
same,"viability, T/C","second compound 1 µM, first compound 3.16 µM",30.9%
same,"viability, T/C","second compound 1 µM, first compound 10 µM",18.1%
same,"viability, T/C",[9],103%
same,"viability, T/C","second compound 3.16 µM, first compound 0.1 µM",103%
same,"viability, T/C",[10],84.5%
same,"viability, T/C","second compound 3.16 µM, first compound 1 µM",60.1%
same,"viability, T/C","second compound 3.16 µM, first compound 3.16 µM",35.2%
same,"viability, T/C","second compound 3.16 µM, first compound 10 µM",18.8%
same,"viability, T/C",[11],105%
same,"viability, T/C","second compound 10 µM, first compound 0.1 µM",99.9%
same,"viability, T/C",[12],80.6%
same,"viability, T/C","second compound 10 µM, first compound 1 µM",56.9%
same,"viability, T/C","second compound 10 µM, first compound 3.16 µM",35.9%
same,"viability, T/C","second compound 10 µM, first compound 10 µM",20.1%
